Test results taken from publication PMC3050527 (Bioorganic & medicinal chemistry, 2010).
Entries after “also recorded” stand apart in the source; their conditions may differ.

Assays:
Type in all cases: biochemical
[1] = target: T1, hGIIA sPLA2 (Homo sapiens, UniProt P14555); experiment: continuous fluorimetric sPLA2 assay, human GIIA; details: compared with GK126
T1 sequence (P14555 21-144): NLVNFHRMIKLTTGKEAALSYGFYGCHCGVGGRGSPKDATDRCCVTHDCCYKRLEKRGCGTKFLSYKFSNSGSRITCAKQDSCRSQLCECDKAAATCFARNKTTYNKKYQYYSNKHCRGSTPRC

[2] = target: T2, cPLA2 (Homo sapiens, UniProt P47712); experiment: inhibition of cPLA2; details: at 1µµ
T2 sequence (P47712 1-749): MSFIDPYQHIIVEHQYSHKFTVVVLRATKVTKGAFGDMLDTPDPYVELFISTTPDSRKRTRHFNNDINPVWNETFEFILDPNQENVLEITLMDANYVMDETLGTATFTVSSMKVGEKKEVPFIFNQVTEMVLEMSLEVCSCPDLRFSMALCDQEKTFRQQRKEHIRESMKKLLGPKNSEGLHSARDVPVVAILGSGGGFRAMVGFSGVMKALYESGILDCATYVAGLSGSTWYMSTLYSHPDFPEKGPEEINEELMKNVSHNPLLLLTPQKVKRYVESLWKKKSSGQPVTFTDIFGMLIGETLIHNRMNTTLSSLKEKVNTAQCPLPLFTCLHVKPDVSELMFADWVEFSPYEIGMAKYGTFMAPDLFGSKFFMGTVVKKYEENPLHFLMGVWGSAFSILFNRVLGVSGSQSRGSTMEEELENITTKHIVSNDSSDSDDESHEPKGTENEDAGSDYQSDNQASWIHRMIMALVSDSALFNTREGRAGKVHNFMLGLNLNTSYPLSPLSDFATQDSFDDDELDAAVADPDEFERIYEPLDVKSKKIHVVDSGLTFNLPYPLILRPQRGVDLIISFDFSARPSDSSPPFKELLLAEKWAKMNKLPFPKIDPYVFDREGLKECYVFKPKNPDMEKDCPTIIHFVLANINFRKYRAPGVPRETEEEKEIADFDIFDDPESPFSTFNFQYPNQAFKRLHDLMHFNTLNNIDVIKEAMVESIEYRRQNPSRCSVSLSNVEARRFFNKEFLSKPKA

[3] = target: T3, hGX sPLA2 (Homo sapiens, UniProt O15496); experiment: continuous fluorimetric sPLA2 assay, human GX
T3 sequence (O15496 43-165): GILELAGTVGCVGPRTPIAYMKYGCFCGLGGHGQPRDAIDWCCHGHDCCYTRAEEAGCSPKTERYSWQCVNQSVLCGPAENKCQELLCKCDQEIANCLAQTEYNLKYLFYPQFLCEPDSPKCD

Row | SMILES | sPLA2 inhibitory activity (in words) [1] | inhibition against cPLA2 [2] | inhibition of human GX sPLA2 (in words) [3]
1 | CCCCCCCCCCCCCCCC(=O)N[C@@H](CC(C)C)C(=O)O [GK144, (S)-4-Methyl-2-palmitamidopentanoic acid] | inactive | – | –
2 | CCCCCCCCCCCCCCC(=O)C(=O)N[C@@H](Cc1ccccc1)C(=O)O [GK141, (S)-2-(2-Oxohexadecanamido)-3-phenylpropanoic acid] | inactive | – | –
3 | CCCCCCCCCCCCCCC(=O)C(=O)N[C@@H](CC(C)C)C(=O)O [GK126, (S)-4-Methyl-2-(2-oxohexadecanamido)pentanoic acid] | – | ≤ 12% | did not show any inhibition; also recorded: did not display any measurable inhibition
